Columns and labels:
cathepsin B = cathepsin B (Rattus norvegicus, UniProt P00787); assay: In vitro inhibition of cathepsin B; format: biochemical; conditions: r rat cathepsin B, substrate N-CBZ-Phe-Arg-AMC, pH 5.1, 10 min incubation at room temperature
Procedure: In vitro assay procedure for cathepsin B
The compounds of formula I were tested for inhibition of cathepsin B using the known method (A. J. Barret et al., Biochem. J. 1982, 201, 189-198). To a 170 μl of enzyme-buffer mixture (enzyme: r rat cathepsin B, diluted to give approximate 10 F units/min, buffer: 56 mM sodium acetate, 1.124 mM EDTA, 10 mM DTT, pH 5.1) a 10 μL of inhibitor (dissolved in DMSO) was added. After 10 min of incubation at room temperature, a 20 μl of 5 mM substrate (N-CBZ-Phe-Arg-AMC, dissolved in DMSO) was added to initiate reaction. Reading is followed up for 10 min at the fluoroscan reader (excitation at 380 nm emission at 460 nm).
A plot of percentage of inhibition vs inhibitor concentration is obtained, and IC50 is determined using a linear regression calculations (concentration of inhibitor which will give 50% inhibition).

cathepsin L = cathepsin L (Rattus norvegicus, UniProt P07154); assay: In vitro inhibition of cathepsin L; format: biochemical; conditions: r rat cathepsin L, substrate N-CBZ-Phe-Arg-AMC, pH 5.0, 10 min incubation at room temperature
cathepsin L, sequence (P07154 114-334): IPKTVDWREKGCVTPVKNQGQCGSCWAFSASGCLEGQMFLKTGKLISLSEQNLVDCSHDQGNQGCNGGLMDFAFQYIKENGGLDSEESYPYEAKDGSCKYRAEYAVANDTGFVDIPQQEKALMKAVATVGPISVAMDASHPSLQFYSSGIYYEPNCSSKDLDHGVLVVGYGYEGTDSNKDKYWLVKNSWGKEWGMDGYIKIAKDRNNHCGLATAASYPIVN
Procedure: In vitro assay procedure for cathepsin L
After 10 min of incubation at room temperature, a 20 μl of 1 mM substrate (N-CBZ-Phe-Arg-AMC, dissolved in DMSO) was added to initiate reaction. Reading is followed up for 10 min at the fluoroscan reader (excitation at 380 nm emission at 460 nm).

cathepsin B, sequence (P00787 80-339): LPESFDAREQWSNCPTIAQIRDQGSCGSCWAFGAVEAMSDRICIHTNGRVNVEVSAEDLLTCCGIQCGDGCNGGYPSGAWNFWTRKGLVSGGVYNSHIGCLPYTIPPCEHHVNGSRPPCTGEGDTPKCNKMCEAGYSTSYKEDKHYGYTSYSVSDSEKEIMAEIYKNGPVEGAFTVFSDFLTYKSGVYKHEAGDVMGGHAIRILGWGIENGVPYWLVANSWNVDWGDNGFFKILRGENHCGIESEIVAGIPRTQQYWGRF

SMILES | IC50 (cathepsin B) | IC50 (cathepsin L)
O=C(N[C@@H]1C(=O)N2CCO[C@H]12)OCc1ccccc1 [Example 1, (5R,6S)-6-benzyloxycarbonylamino-4-oxa-1-azabicyclo[3.2.0]heptan-7-one] | > 50 µM | > 50 µM
O=C(N[C@@H](Cc1ccccc1)C(=O)N[C@@H]1C(=O)N2CCO[C@H]12)OCc1ccccc1 [Example 2, (5R,6S)-6-(N-benzyloxycarbonyl-L-phenylalanyl)-amino-4-oxa-1-azabicyclo[3.2.0]heptan-7-one] | 4.56 µM | 0.26 µM
O=C(N[C@@H]1C(=O)N2CCO[C@H]12)[C@@H]1CCCN1C(=O)OCc1ccccc1 [Example 3, (5R,6S)-6-(N-benzyloxycarbonyl-L-prolyl)-amino-4-oxa-1-azabicyclo[3.2.0]heptan-7-one] | > 50 µM | 9.4 µM
CC[C@H](C)[C@H](NC(=O)OCc1ccccc1)C(=O)N[C@@H]1C(=O)N2CCO[C@H]12 [Example 4, (5R,6S)-6-(N-benzyloxycarbonyl-L-isoleucyl)-amino-4-oxa-1-azabicyclo[3.2.0]heptan-7-one] | > 50 µM | 9.88 µM
C[C@H](NC(=O)OCc1ccccc1)C(=O)N[C@@H]1C(=O)N2CCO[C@H]12 [Example 5, (5R,6S)-6-(N-benzyloxycarbonyl-L-alanyl)-amino-4-oxa-1-azabicyclo[3.2,0]heptan-7-one] | > 50 µM | 
CC(C)C[C@H](NC(=O)OCc1ccccc1)C(=O)N[C@@H]1C(=O)N2CCO[C@H]12 [Example 6, (5R,6S)-6-(N-benzyloxycarbonyl-L-leucyl)-amino-4-oxa-1-azabicyclo[3.2,0]heptan-7-one] | 30 µM | 0.6 µM
O=C(NC(C(=O)N[C@@H]1C(=O)N2CCO[C@H]12)c1ccccc1)OCc1ccccc1 (stereo partly drawn) [Example 7, (5R,6S)-6-(N-benzyloxycarbonyl-phenylglycyl)-amino-4-oxa-1-azabicyclo[3.2.0]heptan-7-one] | > 50 µM | 

Further lines, results first:

IC50 (cathepsin B) | IC50 (cathepsin L) | SMILES
12.2 µM |  | O=C(N[C@@H](Cc1ccccc1)C(=O)N[C@@H]1C(=O)N2CCO[C@@H]12)OCc1ccccc1 [Example 8, (5S,6S)-6-(N-benzyloxycarbonyl-L-phenylalanyl)-amino-4-oxa-1-azabicyclo[3.2.0]heptan-7-one]
> 50 µM | > 50 µM | O=C(CCc1ccccc1)N[C@@H](Cc1ccccc1)C(=O)N[C@@H]1C(=O)N2CC(c3ccccc3)O[C@H]12 (stereo partly drawn) [Example 9, (5R,6S)-6-{N-(3-phenylpropionoyl)-L-phenylalanyl}-amino-3-phenyl-4-oxa-1-azabicyclo[3,2.0]heptan-7-one]
1.91 µM | 0.016 µM | O=C(CCc1ccccc1)N[C@@H](Cc1ccccc1)C(=O)N[C@@H]1C(=O)N2CC(CBr)O[C@@H]12 (stereo partly drawn) [Example 10, (5S,6S)-6-{N-(3-phenylpropionoyl)-L-phenylalanyl}-amino-3-bromomethyl-4-oxa-1-azabicyclo[3.2.0]heptan-7-one]
